Assay results published in patent US20100286233A1, “PERIPHERAL AND NEURAL INFLAMMATORY CROSSTALK” (University of Rochester, priority 2006, published 2010).
Like-named read-outs stand apart in the source and are kept apart here.

Columns and labels:
[1] = tested on: avian mesenchymal limb bud cells; settings: cited from earlier work
[2] = target: mouse recombinant DOR-1 receptor (Mus musculus, UniProt P32300); settings: cited from earlier work
mice = settings: cited from earlier work
C2C12 cell line = assay: C2C12 conversion to osteoblastic phenotype, alkaline phosphatase histochemistry; assay type: cell-based
Experimental: In vitro studies: The C2C12 cell line, an in vitro model of chondrocyte differentiation and maturation, was obtained from ATCC and cultured in DMEM plus 10% normal bovine serum for 4 days as previously described (Katagiri, T., et al. 1994). In addition, cells were treated with BMP-2 (300 ng/mL) or alternatively with BMP-2 plus PGE2 (10^−8M) or recombinant IL-1β (10 ng/mL) or butaprost (10^−8M) in the culture medium. At the end of the experiment, cells were fixed with 10% formalin. Alkaline phosphatase expression was evaluated using the BCIP/NBT histochemistry method (Vector Labs, Burlingame Calif.). Positively-stained cells were counted in 10 random 20× fields using an inverted Olympus CK41 microscope.

growth plate = settings: systemic injection; cited from earlier work
μ-receptor = settings: in vivo; cited from earlier work
δ-receptors = δ-receptors (Homo sapiens, UniProt P41143); settings: cited from earlier work
Sequence of δ-receptors (P41143 whole entry): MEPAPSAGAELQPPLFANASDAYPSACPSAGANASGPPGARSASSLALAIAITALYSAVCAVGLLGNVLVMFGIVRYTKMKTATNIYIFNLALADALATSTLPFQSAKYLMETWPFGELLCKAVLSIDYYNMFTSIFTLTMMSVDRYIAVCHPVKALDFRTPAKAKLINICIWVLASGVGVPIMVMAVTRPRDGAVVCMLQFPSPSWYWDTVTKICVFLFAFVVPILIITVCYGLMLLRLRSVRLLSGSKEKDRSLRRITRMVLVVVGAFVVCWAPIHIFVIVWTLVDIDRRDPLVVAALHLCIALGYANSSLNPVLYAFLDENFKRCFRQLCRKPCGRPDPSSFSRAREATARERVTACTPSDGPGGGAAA

μ-receptors = μ-receptors (Homo sapiens, UniProt P35372); settings: cited from earlier work
Sequence of μ-receptors (P35372 whole entry): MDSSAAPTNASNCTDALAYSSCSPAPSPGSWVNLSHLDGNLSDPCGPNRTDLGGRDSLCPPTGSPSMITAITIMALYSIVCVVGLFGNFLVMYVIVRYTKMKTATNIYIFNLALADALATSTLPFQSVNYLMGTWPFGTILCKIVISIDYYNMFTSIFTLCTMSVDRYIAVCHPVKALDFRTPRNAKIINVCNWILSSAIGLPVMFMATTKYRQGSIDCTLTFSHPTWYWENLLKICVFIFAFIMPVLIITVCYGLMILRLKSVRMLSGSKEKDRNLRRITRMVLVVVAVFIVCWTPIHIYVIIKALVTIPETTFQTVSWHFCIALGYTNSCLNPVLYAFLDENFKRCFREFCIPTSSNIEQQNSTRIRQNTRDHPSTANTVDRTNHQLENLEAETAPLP

κ-receptors = κ-receptors (Homo sapiens, UniProt P41145); settings: cited from earlier work
Sequence of κ-receptors (P41145 whole entry): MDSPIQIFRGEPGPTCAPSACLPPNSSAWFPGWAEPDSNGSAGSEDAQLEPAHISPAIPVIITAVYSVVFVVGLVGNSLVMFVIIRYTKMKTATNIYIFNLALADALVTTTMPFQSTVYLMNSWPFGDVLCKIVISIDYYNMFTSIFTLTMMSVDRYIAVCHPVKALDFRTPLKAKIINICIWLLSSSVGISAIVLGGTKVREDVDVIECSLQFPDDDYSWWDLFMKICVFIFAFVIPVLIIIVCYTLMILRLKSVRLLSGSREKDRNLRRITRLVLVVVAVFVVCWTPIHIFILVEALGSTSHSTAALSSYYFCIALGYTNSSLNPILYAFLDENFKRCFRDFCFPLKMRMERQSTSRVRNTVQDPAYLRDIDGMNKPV

C57BL/6 mice = assay: Intracisternal IL-1β injection, brain stem IHC for GFAP and CGRP; assay type: in vivo, mouse; settings: 2 ng in 2 μl into the cisterna magna, two days later
Experimental: Murine IL-1β (2 ng in 2 μl of normal saline) was injected […] in the cisterna magna of deeply anesthetized C57BL/6 mice (anesthetic: ketamine 40 mg/kg IP). Two days later, the mice were sacrificed, […] transcardially with 4% paraformaldehyde in phosphate buffered saline solution and the brain stem was harvested, frozed and cut at 18 μm thick horizontal sections which were collected on glass slides. The histology slides were then analyzed by immunohistochemistry (IHC) using antibodies raised against calcitonin gene-related peptide (CGRP; […]) and glial fibrillary acidic protein (GFAP; Dako).

[3] = MOR-1 knockout mice, disruption in exon-1

Sequence of mouse recombinant DOR-1 receptor (P32300 whole entry): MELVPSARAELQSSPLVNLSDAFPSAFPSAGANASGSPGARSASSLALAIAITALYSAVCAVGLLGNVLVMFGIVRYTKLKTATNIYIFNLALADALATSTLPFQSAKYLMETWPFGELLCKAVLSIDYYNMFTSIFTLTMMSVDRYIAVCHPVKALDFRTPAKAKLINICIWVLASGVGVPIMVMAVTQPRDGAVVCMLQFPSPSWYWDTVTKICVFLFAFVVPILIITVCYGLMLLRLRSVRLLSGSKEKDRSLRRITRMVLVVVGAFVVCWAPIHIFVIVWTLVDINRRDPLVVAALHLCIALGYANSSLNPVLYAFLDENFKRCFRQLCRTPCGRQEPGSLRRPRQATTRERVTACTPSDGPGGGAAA

COc1ccc2c(c1)c(CC(=O)O)c(C)n2C(=O)c1ccc(Cl)cc1 [indomethacin]
chondrogenesis [1]: inhibit chondrogenesis

Oc1ccc2c3c1O[C@H]1c4oc5ccccc5c4C[C@@]4(O)[C@@H](C2)N(CC2CC2)CC[C@]314 [naltriben, Naltriben]
displacement of [3H]-diprenorphine binding [2]: more highly displaced by naltriben than BNTX

CC(=O)Oc1ccc2c3c1O[C@H]1[C@@H](OC(C)=O)C=C[C@H]4[C@@H](C2)N(C)CC[C@@]341 [heroin]
antinociception (mice; [3]): still produce antinociception | antinociception (mice; mice of the CXBX strain): potently antinociceptive

CN1CC[C@]23c4c5ccc(O)c4O[C@H]2[C@@H](O[C@@H]2O[C@H](C(=O)O)[C@@H](O)[C@H](O)[C@H]2O)C=C[C@H]3[C@H]1C5 [morphine-6b-glucuronide]
antinociception (mice; [3]): still produce antinociception | antinociception (mice; mice of the CXBX strain): potently antinociceptive

CN1CC[C@]23c4c5ccc(O)c4O[C@H]2[C@@H](O)C=C[C@H]3[C@H]1C5 [morphine]
antinociception (mice; [3]): not | antinociception (mice; mice of the CXBX strain): poor antinociceptive agent

CCCCC[C@H](O)/C=C/[C@H]1[C@H](O)CC(=O)[C@@H]1C/C=C\CCCC(=O)O [PGE2, prostaglandin E2]
increase in the number of cells expressing alkaline phosphatase (C2C12 cell line; BMP-2 plus PGE2 (10^-8M), 4 days, versus BMP-2): approximately 5 fold | conversion of differentiating C2C12 cells to an osteoblastic phenotype (C2C12 cell line; under the stimulus of BMP-2): acceleration of their conversion to an osteoblastic phenotype | growth plate and limb growth (growth plate): thinner growth plate with decreased size of hypertrophic chondrocytes and reduced limb growth | chondrogenesis [1]: enhances chondrogenesis | chondrogenesis ([1]; in the presence of indomethacin): stimulates chondrogenesis

C=CCN1CC[C@]23c4c5ccc(O)c4O[C@H]2/C(=N\N)CC[C@@]3(O)[C@H]1C5 [naloxazone]
induction of morphine dependence (μ-receptor): did not block | morphine-induced antinociception (μ-receptor): selectively blocked | morphine-induced respiratory depression (μ-receptor): did not block

β-endorphin: endogenous opioid peptide from pro-opiomelanocortin, SEQ ID NO: 129
affinity for δ-receptors (δ-receptors): equiactive at μ- and δ-receptors | affinity for μ-receptors (μ-receptors): equiactive at μ- and δ-receptors | affinity for κ-receptors (κ-receptors): much lower affinity

B1: IL-1β: murine interleukin-1β cytokine injected into the cisterna magna (protein, UniProt P10749 118-269, looked up)
Interleukin-1 beta: VPIRQLHYRLRDEQQKSLVLSDPYELKALHLNGQNINQQVIFSMSFVQGEPSNDKIPVALGLKGKNLYLSCVMKDGTPTLQLESVDPKQYPKKKMEKRFVFNKIEVKSKVEFESAEFPNWYISTSQAEHKPVFLGNNSGQDIIDFTMESVSS
expression of CGRP in the descending trigeminal nucleus (medullary dorsal horn) (C57BL/6 mice): induced | expression of GFAP in the descending trigeminal nucleus (medullary dorsal horn) (C57BL/6 mice): induced
